Source: patent publication US20180327367A1, “MACROCYCLIC BROAD SPECTRUM ANTIBIOTICS” (priority 2015, published 2018)
In brackets after ≈: the same amount, converted by molar mass.

How the values were obtained:
[1] = system: Escherichia coli ATCC 25922; assay: Minimum inhibitory concentration, broth micro-dilution (CLSI), E. coli; type: cell-based; conditions: Escherichia coli, ATCC25922, 22 h, E. coli ATCC 25922; 35° C., 22 hours; read-out: MIC (μg/mL) E. coli
[2] = molecular target: T1, SpsB (Staphylococcus aureus signal peptidase) (Staphylococcus aureus, UniProt P0A070); assay: cell-based; type: biochemical; conditions: SpsB IC50, whole-cell S. aureus (USA300 background, overexpressing SpsB) as SpsB source; fluorogenic peptide substrate, kinetic read 30 min
T1 construct: This assay uses a suspension of Staphylococcus aureus cells as a source of SpsB instead of recombinant SpsB protein; endogenous in cells; host or cells: S. aureus, USA300 background, overexpressing SpsB (whole-cell suspension from frozen pellets)
T1 sequence (P0A070 whole entry): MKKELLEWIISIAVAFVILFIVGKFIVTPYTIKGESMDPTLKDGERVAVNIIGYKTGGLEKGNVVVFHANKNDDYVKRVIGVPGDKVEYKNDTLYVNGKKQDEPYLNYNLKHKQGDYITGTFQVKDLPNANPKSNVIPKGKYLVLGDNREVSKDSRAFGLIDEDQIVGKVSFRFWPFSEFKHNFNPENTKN
Outline: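 Whole S. aureus cells (USA300, overexpressing SpsB) in PBS with MgCl2, CaCl2 and 0.1% Tween-80 served as enzyme source, mixed with 20 μM stock of (Dabcyl)βAla-KPAKAAE(Edans) substrate before use. Fluorescence (ex 340/em 490 nm) read kinetically over 30 min. IC50 from reaction rate versus 11-point inhibitor concentration.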

[3] = system: Methicillin Resistant Staphylococcus aureus strain USA 300, NRS384; assay: Minimum inhibitory concentration, broth micro-dilution (CLSI), S. aureus; type: cell-based; conditions: Staphylococcus aureus, MRSA / NRS 384 / USA300, 22 h, MRSA USA 300 NRS384; 35° C., 22 hours; read-out: MIC (μg/mL) S. aureus
Outline: (§1)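 CLSI broth microdilution in cation-adjusted Mueller Hinton Broth with 0.002% Tween-80; inoculum final OD600 0.0005, 22 hours at 35° C. Ten 2-fold dilutions starting at 4 μg/mL (protocol 2) or 0.5 μg/mL (protocol 3).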

[4] = system: Escherichia coli MC4100 harboring the IMP4213 (E. coli IMP); assay: microbe, parasite or virus in culture; type: cell-based; conditions: Escherichia coli, 22 h, read-out: MIC (μg/mL) E. coli IMP, E. coli MC4100 IMP4213, increased outer-membrane permeability; 35° C., 22 hours
Outline: as §1

Row | Compound | MIC [1] | IC50 [2] | MIC [3] | MIC [4]
1 | CCCCCCCCc1ccc(C(=O)N[C@@H](CCN)C(=O)N(C)[C@@H]2C(=O)N[C@@H](C)C(=O)N[C@H](C(=O)NCC#N)Cc3ccc(OCCN)c(c3)-c3cc2ccc3OCCN)c(F)c1 [Compound 184] | 0.25 µg/mL (≈ 0.287 µM) | 0.89 nM | 0.094 µg/mL (≈ 0.108 µM) | 0.012 µg/mL (≈ 0.0138 µM)
2 | CCCCCCCCc1ccc(C(=O)N[C@@H](CCN)C(=O)N(C)[C@@H]2C(=O)N[C@@H](C)C(=O)N[C@H](C(=O)NCC#N)Cc3ccc(OCCN)c(c3)-c3cc2ccc3OCCN)c(SC)c1 [Compound 185] | 0.75 µg/mL (≈ 0.833 µM) | 0.91 nM | 0.19 µg/mL (≈ 0.211 µM) | 0.094 µg/mL (≈ 0.104 µM)
3 | CCCCCCCCc1cnc(C(=O)N[C@@H](CCN)C(=O)N(C)[C@@H]2C(=O)N[C@@H](C)C(=O)N[C@H](C(=O)NCC#N)Cc3ccc(OCCN)c(c3)-c3cc2ccc3OCCN)c(C)c1 [Compound 187] | 2 µg/mL (≈ 2.3 µM) | 0.74 nM | 0.063 µg/mL (≈ 0.0725 µM) | 0.047 µg/mL (≈ 0.0541 µM)
4 | CCCCCCCc1cc(C)c(C(=O)N[C@@H](CCN)C(=O)N(C)[C@@H]2C(=O)N[C@@H](C)C(=O)N[C@H](C(=O)NCC#N)Cc3ccc(OCCN)c(c3)-c3cc2ccc3OCCN)c(F)c1 [Compound 188] | 0.22 µg/mL (≈ 0.252 µM) | 0.67 nM | 0.047 µg/mL (≈ 0.0539 µM) | 0.018 µg/mL (≈ 0.0206 µM)
5 | CCCCCCCc1cc(F)c(C(=O)N[C@@H](CCN)C(=O)N(C)[C@@H]2C(=O)N[C@@H](C)C(=O)N[C@H](C(=O)NCC#N)Cc3ccc(OCCN)c(c3)-c3cc2ccc3OCCN)c(F)c1 [Compound 190] | 0.31 µg/mL (≈ 0.354 µM) | 0.7 nM | 0.063 µg/mL (≈ 0.0719 µM) | 0.02 µg/mL (≈ 0.0228 µM)
6 | CCCCCCCc1ccc(C(=O)N[C@@H](CCN)C(=O)N(C)[C@@H]2C(=O)N[C@@H](C)C(=O)N[C@H](C(=O)NCC#N)Cc3ccc(OCCN)c(c3)-c3cc2ccc3OCCN)c(C(F)(F)F)c1 [Compound 191] | 0.75 µg/mL (≈ 0.826 µM) | 0.62 nM | 0.031 µg/mL (≈ 0.0341 µM) | 0.016 µg/mL (≈ 0.0176 µM)
7 | CCCCCCCCc1ccc(C(=O)N[C@@H](CCN)C(=O)N(C)[C@@H]2C(=O)N[C@@H](C)C(=O)N[C@H](C(=O)NCC#N)Cc3ccc(OCCN)c(c3)-c3cc2ccc3OCCN)c(C(F)(F)F)c1 [Compound 192] | 0.25 µg/mL (≈ 0.271 µM) | 0.89 nM | 0.063 µg/mL (≈ 0.0683 µM) | 0.012 µg/mL (≈ 0.013 µM)
8 | CCCCCCCCc1ccc(C(=O)N[C@@H](CCN)C(=O)N(C)[C@@H]2C(=O)N[C@@H](C)C(=O)N[C@H](C(=O)NCC#N)Cc3ccc(OCCN)c(c3)-c3cc2ccc3OCCN)c(O)c1 [Compound 193] | 0.5 µg/mL (≈ 0.575 µM) | 0.93 nM | 0.063 µg/mL (≈ 0.0724 µM) | 0.047 µg/mL (≈ 0.054 µM)
9 | CCCCCCCc1ccc(C(=O)N[C@@H](CCCN)C(=O)N(C)[C@@H]2C(=O)N[C@@H](C)C(=O)N[C@H](C(=O)NCC#N)Cc3ccc(OCCN)c(c3)-c3cc2ccc3OCCN)c(C)c1 [Compound 194] | 0.25 µg/mL (≈ 0.288 µM) | 0.83 nM | 0.016 µg/mL (≈ 0.0184 µM) | 0.0078 µg/mL (≈ 0.00899 µM)
10 | CCCCCCc1ccc(C(=O)N[C@@H](CCN)C(=O)N(C)[C@@H]2C(=O)N[C@@H](C)C(=O)N[C@H](C(=O)NCC#N)Cc3ccc(OCCN)c(c3)-c3cc2ccc3OCCN)cc1 [Compound 195] | 0.5 µg/mL (≈ 0.605 µM) | 1.4 nM | 0.063 µg/mL (≈ 0.0763 µM) | 0.0078 µg/mL (≈ 0.00944 µM)
11 | CCCCCc1ccc(C(=O)N[C@@H](CCN)C(=O)N(C)[C@@H]2C(=O)N[C@@H](C)C(=O)N[C@H](C(=O)NCC#N)Cc3ccc(OCCN)c(c3)-c3cc2ccc3OCCN)c(C)c1 [Compound 196] | 0.67 µg/mL (≈ 0.811 µM) | 1.1 nM | 0.094 µg/mL (≈ 0.114 µM) | 0.013 µg/mL (≈ 0.0157 µM)
12 | CCCCCCc1ccc(C(=O)N[C@@H](CCN)C(=O)N(C)[C@@H]2C(=O)N[C@@H](C)C(=O)N[C@H](C(=O)NCC#N)Cc3ccc(OCCN)c(c3)-c3cc2ccc3OCCN)c(C)c1 [Compound 197] | 0.31 µg/mL (≈ 0.369 µM) | < 0.5 nM | 0.078 µg/mL (≈ 0.0929 µM) | 0.011 µg/mL (≈ 0.0131 µM)
13 | CCCCCCCc1ccc(C(=O)N[C@@H](CCN)C(=O)N(C)[C@@H]2C(=O)N[C@@H](C)C(=O)N[C@H](C(=O)NCC#N)Cc3ccc(OCCN)c(c3)-c3cc2ccc3OCCN)c(C)c1 [Compound 198] | 0.24 µg/mL (≈ 0.281 µM) | 0.72 nM | 0.063 µg/mL (≈ 0.0738 µM) | 0.018 µg/mL (≈ 0.0211 µM)
